Source: ChEMBL document CHEMBL4431299 (Medchemcomm, 2016)
Calls of active or inactive are those of the source. The calls are words filed in the database; no cut-off is given here.

These compounds were tested against Mitogen-activated protein kinase 14 (Mus musculus, UniProt P47811) (assay: (§1) Inhibition of kinase tracer 199 binding to mouse inactive p38alpha (2 to 349 residues) expressed in Escherichia coli by microscale thermophoresis assay).
Mitogen-activated protein kinase 14, sequence (P47811 whole entry, the tested form may be a part): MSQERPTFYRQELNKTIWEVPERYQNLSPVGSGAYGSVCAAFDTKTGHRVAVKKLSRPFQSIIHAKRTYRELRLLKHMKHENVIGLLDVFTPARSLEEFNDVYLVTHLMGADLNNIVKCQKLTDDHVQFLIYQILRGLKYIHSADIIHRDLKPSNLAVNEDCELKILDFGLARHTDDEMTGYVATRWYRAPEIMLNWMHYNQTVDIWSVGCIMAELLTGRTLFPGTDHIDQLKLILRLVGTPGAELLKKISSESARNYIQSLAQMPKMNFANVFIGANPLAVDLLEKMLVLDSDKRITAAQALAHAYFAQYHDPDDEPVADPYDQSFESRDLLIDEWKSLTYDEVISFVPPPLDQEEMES

Ki [nM] | Structure (SMILES)
730 | Cc1ccccc1-n1nc(C(C)(C)C)cc1NC(=O)Nc1ccc(Cl)cc1
30 | Cc1ccc(-n2nc(C(C)(C)C)cc2NC(=O)Nc2ccc(Cl)cc2)cc1
100 | CC(C)(C)c1cc(NC(=O)Nc2ccc(Cl)cc2)n(-c2ccccc2)n1
20 | Cc1cccc(-n2nc(C(C)(C)C)cc2NC(=O)Nc2ccc(Cl)cc2)c1

What follows are compounds tested against Mitogen-activated protein kinase 14 (Mus musculus) (UniProt P47811) (assay: as §1).
Mitogen-activated protein kinase 14 (Mus musculus), sequence (P47811 whole entry): as the sequence (P47811 whole entry, the tested form may be a part) above

Structure (SMILES) | inhibition
CC(C)(C)c1cc(NC(=O)Nc2ccc(Cl)cc2)n(-c2ccccc2F)n1 | Active
COc1ccc(-n2nc(C(C)(C)C)cc2NC(=O)Nc2ccc(Cl)cc2)cc1 | Active
CC(C)(C)c1cc(NC(=O)Nc2ccc(Cl)cc2)n(-c2ccc(Cl)cc2)n1 | Active
CC(C)(C)c1cc(NC(=O)Nc2ccc(Cl)cc2)n(-c2ccc(F)cc2)n1 | Active

Other lines, results leading:

inhibition | Structure (SMILES)
inactive | COc1ccccc1-n1nc(C(C)(C)C)cc1NC(=O)Nc1ccc(Cl)cc1
inactive | CC(C)(C)c1cc(NC(=O)Nc2ccc(Cl)cc2)n(-c2ccccc2Cl)n1
